Laboratory results as given in ChEMBL document CHEMBL5380808, “Design, Synthesis, and Biological Activity of Marinacarboline Analogues as STAT3 Pathway Inhibitors for Docetaxel-Resistant Triple-Negative Breast Cancer” (J Med Chem, 2023).
The source made the active and inactive calls. The rule behind the calls is not given here.

Columns and labels:
[1] = Induction of cell cycle arrest in docetaxel-resistant human MDA-MB-231-DTR cells assessed as accumulation at S phase at 5 uM incubated for 36 hrs by PI staining based flow cytometry analysis (reference value: 11.57%); format: functional
[2] = Induction of cell cycle arrest in docetaxel-resistant human MDA-MB-231-DTR cells assessed as accumulation at G0/G1 phase at 5 uM incubated for 12 hrs by PI staining based flow cytometry analysis (reference value: 75.49%); format: functional
[3] = Synergistic antiproliferative activity against docetaxel-resistant human MDA-MB-231-DTR cells assessed as combination index at 2 uM incubated for 72 hrs in presence of 1 uM of docetaxel by Chou-Talalay method; format: functional
[4] = Antiproliferative activity against docetaxel-resistant human MDA-MB-231-DTR cells assessed as reduction in cell viability incubated for 72 hrs by MTT assay; format: functional, cell-based; conditions: MDA-MB-231, 72 h
MDA-MB-231 [5] = experiment: Antitumor activity against docetaxel-resistant human MDA-MB-231-DTR cells xenografted in BALB/c mouse assessed as tumor growth inhibition at 10 mg/kg, ip daily for 12 days; format: functional, organism-based; conditions: time 12.0 day
[6] = Induction of cell cycle arrest in docetaxel-resistant human MDA-MB-231-DTR cells assessed as accumulation at S phase at 5 uM incubated for 36 hrs by PI staining based flow cytometry analysis (reference value: 10.56%); format: functional
[7] = molecular target: T1, Signal transducer and activator of transcription 1-alpha/beta (Homo sapiens) (UniProt P42224); experiment: Inhibition of STAT1 phosphorylation at S727 residue in docetaxel-resistant human MDA-MB-231-DTR cells assessed as decrease in phosphorylated STAT1 level at 2.5 to 10 uM incubated for 24 hrs by Western blot analysis; format: cell-based; conditions: dose 2.5-10 µM
T1 sequence (whole entry): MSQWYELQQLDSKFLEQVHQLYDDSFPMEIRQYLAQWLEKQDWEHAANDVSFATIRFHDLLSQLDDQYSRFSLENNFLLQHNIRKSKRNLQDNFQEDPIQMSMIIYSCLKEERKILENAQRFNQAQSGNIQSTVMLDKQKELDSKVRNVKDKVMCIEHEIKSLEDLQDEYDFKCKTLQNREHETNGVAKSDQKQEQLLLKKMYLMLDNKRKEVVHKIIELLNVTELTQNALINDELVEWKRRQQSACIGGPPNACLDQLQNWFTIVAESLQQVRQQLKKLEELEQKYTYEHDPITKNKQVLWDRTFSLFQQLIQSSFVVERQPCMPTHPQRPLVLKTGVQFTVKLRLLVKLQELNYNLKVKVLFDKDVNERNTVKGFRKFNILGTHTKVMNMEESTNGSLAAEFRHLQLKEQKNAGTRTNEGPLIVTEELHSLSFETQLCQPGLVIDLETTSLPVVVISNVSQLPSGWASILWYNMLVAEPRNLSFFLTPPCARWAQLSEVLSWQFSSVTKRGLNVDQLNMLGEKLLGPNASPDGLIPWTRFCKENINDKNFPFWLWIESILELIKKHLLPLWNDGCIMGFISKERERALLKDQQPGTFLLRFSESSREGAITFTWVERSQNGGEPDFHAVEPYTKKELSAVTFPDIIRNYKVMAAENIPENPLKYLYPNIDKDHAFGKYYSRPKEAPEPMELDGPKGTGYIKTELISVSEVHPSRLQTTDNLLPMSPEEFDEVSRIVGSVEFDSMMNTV

[8] = Induction of cell cycle arrest in docetaxel-resistant human MDA-MB-231-DTR cells assessed as accumulation at G2/M phase at 5 uM incubated for 36 hrs by PI staining based flow cytometry analysis (reference value: 13.16%); format: functional
[9] = Antiproliferative activity against docetaxel-resistant human MDA-MB-231-DTR cells assessed as reduction in cell viability incubated for 72 hrs by sulforhodamine B assay; format: functional, cell-based; conditions: MDA-MB-231, 72 h
[10] = Induction of cell cycle arrest in docetaxel-resistant human MDA-MB-231-DTR cells assessed as accumulation at subG1 phase at 5 uM incubated for 36 hrs by PI staining based flow cytometry analysis (reference value: 0.52%); format: functional
[11] = Induction of cell cycle arrest in docetaxel-resistant human MDA-MB-231-DTR cells assessed as accumulation at G0/G1 phase at 2.5 uM incubated for 36 hrs by PI staining based flow cytometry analysis (reference value: 74.77%); format: functional
[12] = Induction of cell cycle arrest in docetaxel-resistant human MDA-MB-231-DTR cells assessed as accumulation at subG1 phase at 5 uM incubated for 12 hrs by PI staining based flow cytometry analysis (reference value: 0.41%); format: functional
MDA-MB-231 [13] = experiment: Inhibition of cell migration in docetaxel-resistant human MDA-MB-231-DTR cells assessed as downregulation of Snail expression level at 3 to 6 uM incubated for 24 hrs by Western blot analysis; format: functional, cell-based; conditions: dose 3-6 µM
[14] = Induction of cell cycle arrest in docetaxel-resistant human MDA-MB-231-DTR cells assessed as accumulation at subG1 phase at 5 uM incubated for 36 hrs by PI staining based flow cytometry analysis (reference value: 0.41%); format: functional
[15] = Induction of cell cycle arrest in docetaxel-resistant human MDA-MB-231-DTR cells assessed as accumulation at S phase at 5 uM incubated for 24 hrs by PI staining based flow cytometry analysis (reference value: 10.56%); format: functional
MDA-MB-231 [16] = experiment: Inhibition of cell migration in docetaxel-resistant human MDA-MB-231-DTR cells assessed as upregulation of E-cadherin expression level at 3 to 6 uM incubated for 24 hrs by Western blot analysis; format: functional, cell-based; conditions: dose 3-6 µM
MDA-MB-231 [17] = experiment: Inhibition of cell migration in docetaxel-resistant human MDA-MB-231-DTR cells at 3 to 6 uM incubated for 24 hrs by microscopy based wound healing assay; format: functional; conditions: dose 3-6 µM
[18] = Induction of apoptosis in docetaxel-resistant human MDA-MB-231-DTR cells assessed as increase in total cell death at 10 uM incubated for 48 hrs by Annexin V-FITC and PI staining based flow cytometry; format: functional
MDA-MB-231 [19] = experiment: Antitumor activity against docetaxel-resistant human MDA-MB-231-DTR cells xenografted in BALB/c mouse assessed as downregulation of phosphorylated STAT3 level in tumor tissue at 10 mg/kg, ip daily for 12 days by Immunohistochemical analysis; format: functional, organism-based; conditions: time 12.0 day
MDA-MB-231 [20] = experiment: Antiproliferative activity against human MDA-MB-231 cells assessed as reduction in cell viability incubated for 72 hrs by MTT assay; format: functional, cell-based; conditions: MDA-MB-231, 72 h
[21] = Induction of cell cycle arrest in docetaxel-resistant human MDA-MB-231-DTR cells assessed as accumulation at G0/G1 phase at 5 uM incubated for 24 hrs by PI staining based flow cytometry analysis (reference value: 75.49%); format: functional
[22] = Synergistic antiproliferative activity against docetaxel-resistant human MDA-MB-231-DTR cells assessed as combination index at 2 uM incubated for 72 hrs in presence of 4 uM of docetaxel by Chou-Talalay method; format: functional

SMILES: O=C(NCCc1c[nH]c2ccccc12)c1cc2c([nH]c3ccccc32)c(C(=O)c2ccc(Br)cc2)n1
- Activity [1]: 20.82%
- Activity [2]: 88.84%
- CI [3]: 0.26
- IC50 [4]: 3240 nM
- Activity (MDA-MB-231 [5]): Active
- Activity [6]: 14.21%
- inhibition [7]: inactive
- Activity [8]: 24.58%
- IC50 [9]: 2960 nM
- Activity [10]: 1.81%
- Activity [11]: 62.36%
- Activity [12]: 0.82%
- inhibition (MDA-MB-231 [13]): Active
- Activity [14]: 4.35%
- Activity [15]: 18.28%
- inhibition (MDA-MB-231 [16]): Active
- inhibition (MDA-MB-231 [17]): Dose-Dependent Effect
- Activity [18]: 61.85%
- Activity (MDA-MB-231 [19]): Active
- IC50 (MDA-MB-231 [20]): 2980 nM
- Activity [21]: 82.18%
- CI [22]: 0.32
